Results from patent US20210244712A1, “METHODS FOR TREATING PATIENTS WITH CANCER HAVING DEFECTS IN CYCLIN D REGULATION” (NysnoBio Ireland DAC, priority 2018, published 2021).

Columns and labels:
Format in all cases: cell-based
[1] = system: OAW28; experiment: Cell proliferation assay; conditions: Homo sapiens, OAW-28
[2] = system: OVCAR-3; experiment: Cell proliferation assay; conditions: Homo sapiens; Ovarian OVCAR-3; loss of p16 (mutant p53)
[3] = system: SW626; experiment: Cell proliferation assay; conditions: Homo sapiens; Table 7a; Ovarian (SW626)
[4] = system: Cyclin D; experiment: Cyclin D degradation in cell lines; conditions: text summary of Table 7
[5] = system: OAW42; experiment: Senescence quantification (SA-βGal); conditions: Compound 42 50, 100, or 150 nM, 96 hours, compared to control (DMSO)
Experimental: Senescence was quantified in ovarian cell lines A2780, OAW42, and ES-2. Cell lines A2780 has no cyclin D pathway mutations and has wt Rb and Parkin expression. Cell line OAW42 has increased CDK4 and increased CDK6 with wt Rb and Parkin expression. Cell line ES-2 has increased cyclin D and increased mutant […] with wt Rb and Parkin expression.
Day 1: 96 well plate was seeded with 4000 cells/well and incubated for 24 hours at 37° C.
Day 2: Compound 42 (50, 100, or 150 nM) or palbociclib (1 μM) as positive control were added to the wells and the plate was incubated for 96 hours at 37° C.
(§1) Day 6: Senescence cells histochemical Staining Kit (Sigma) was used. The growth medium form the cells were aspirated then washed twice with fresh […]. […] 100 μL filtered Fixation Buffer was added per well and the plate was incubated for 6-7 minutes at room temperature. Then, the cells were rinsed 3 times with PBS. 50 μL of the Staining Mixture was added per well and incubated at 37° C. overnight without CO2 (staining is pH dependent). After staining, the Staining Mixture was removed, PBS and Hoechst dye (1 μg/mL) were added. Ten images were taken with Epifluorescence Microscope using the blue filter and 10 images were taken in the brightfield. The images were used to count the total cell number—the positive blue cells were counted in the bright field. The percentage of cells expressing β-galactosidase was calculated.
(§2) Method 1: Mammalian β-Galactosidase Assay Kit (Thermo Scientific) was used. […] The cells were washed once with PBS. 100 μL of the β-Galactosidase Assay Reagent was added to each well and the plate was covered and incubated for 30 minutes at 37° C. without CO2. The absorbance was measured at 405 nm. If no change was observed, the plate was incubated for an extra 30 minutes.
Method 2: Assay of a portion of the lysate. The cells were washed once with PBS. 50 μL of the M-PER Reagent was added to each well and the plate was incubated at room temperature for […]. 25 μL of lysate was removed and use it for Protein Quantification (BCA). The date was normalize by protein content.

[6] = system: HCT-116; experiment: Senescence quantification (SA-βGal), Example 6A; conditions: Compound 42 250 nM, Palbociclib 1 μM, compared to control (DMSO)
Experimental: Day 1: 96 well plate was seeded with 4000 cells/well and incubated for 24 hours at 37° C. […]
as §1
as §2, with “If no change was observed, the plate was incubated for an extra 30 minutes.” left out
Method 2: Assay of a portion of the lysate. […] 25 μL of lysate was removed and use it for Protein Quantification (BCA). […]
Senescence was quantified according to Example 4. […]

[7] = system: Rb; experiment: Western blot of cellular biomarker Rb
Experimental: (§3) Various cancer cells lines were treated with Compound 42 or palbociclib (control) to measure the expression of cyclin D, cyclin E, pRb, and Rb.
(§4) Day 1: 6 well plate was seeded with 3×10^5 cells/well with a final volume of 3 mL and incubated for 24 hours at 37° C.
(§5) Day 2: The media was removed and Compound 42 (see below for dose) or palbociclib (1 μM) as positive control were added to the wells the desired concentration in cell culture media, giving a final volume of 3 mL per well. The plate was incubated for 24 hours at 37° C. (or desired period).
(§6) Day 3: The media was removed from wells and washed ×3 with PBS. 500 μl of trypsin was added to the wells and incubate until cells detach. 500 μl media was added to neutralise trypsin, transferred to 2 ml Eppendorfs, and centrifuged (1500 RPM for 5 minutes). While spinning, the wells were washed with 1 mL PBS to collect any remaining cells. This wash was used to centrifuged cell pellet. After the first spin, the supernatant was discarded and the pellet was washed with PBS collected from the previous step. The centrifugation step was repeated and the supernatant was discarded and the pellet wash again with fresh PBS. The centrifugation and wash with PBS was repeated one more time. RIPA cell lysate buffer was prepared and Protease Inhibitor Cocktail was included. The supernatant was discarded and […] RIPA cell lysate buffer was added to the pellet. The protein concentration was determined using the BCA assay kit.
Day 4: Western blot analysis was performed. 4-12% Bis-Tris gel and MOPS running buffer was used. The running buffer was made to sufficient volume of running buffer to 1× concentration. 20 μg protein (v/v loading & reducing buffer) of each sample was loaded into wells. Some proteins may require more, or less, protein loaded. The gel was ran at standard settings 200 V for 45 minutes. […] The membrane was blocked using 5% non-fat powdered milk* made up in 1×TBS containing 0.1% Tween (TBS-T and incubated for 1 hr with gentle rocking. The observation from the Western blot analysis is quantified in FIGS. 2-7D. […]

[8] = system: cyclin D1; experiment: Western blot of cellular biomarker cyclin D1
Experimental: as §3, §4, §5, §6
Day 4: Western blot analysis was performed. 4-12% Bis-Tris gel and MOPS running buffer was used. The running buffer was made to sufficient volume of running buffer to 1× concentration. 20 μg protein (v/v loading & reducing buffer) of each sample was loaded into wells. Some proteins may require more, or less, protein loaded. The gel was ran at standard settings 200 V for 45 minutes. Once gel has run, the gel was transferred for 7 minutes using the iBlot Blotting System. The membrane was blocked using 5% non-fat powdered milk* made up in 1×TBS containing 0.1% Tween (TBS-T and incubated for 1 hr with gentle rocking. The observation from the Western blot analysis is quantified in FIGS. 2-7D.
Cell lines A2780 (ovarian cell line with no cyclin D pathway mutations), ES-2 (ovarian cell line with cyclin D amplification, p53 mutation), OAW42, and SW626 were treated with DMSO (control), 250 nM of Compound 42, or 1 μM of Palbociclib. Treated cells were incubated for 24 hours and data represented in FIGS. 2-5 represents n=3.

[9] = system: Cyclin D; experiment: Mechanistic study: Cyclin D western blot with or without epoxomicin; conditions: ES-2, 18 hours
Experimental: In order to establish that the decrease in Cyclin D seen after Compound 42 treatment is due to proteasomal degradation, ES-2, ovarian cancer cell line was treated with Compound 42 (250 nM) in the presence or absence of epoxomicin, a specific inhibitor of the proteasome (60 nM) for 18 hours. Following the treatment, western blotting for Cyclin D (FIG. 10A), Ub (FK-2) (FIG. 10B), and GAPDH control (bottom blot, below FIGS. 10A and 10B) was performed. Epoxomicin is a specific inhibitor of the proteasome.

[10] = HT116, with increasing concentration

## Cc1ccccc1C(=O)Nc1nc(NC(=O)c2ccccc2C)n(-c2ccc(OC(F)(F)F)cc2)n1 [Compound 42, N,N′-(1-(4-(trifluoromethoxy)phenyl)-1H-1,2,4-triazole-3,5-diyl)bis(2-methylbenzamide)]
[1]; Ovarian OAW28, overexpression of Cyclin D, loss of p16 (mutant p53), loss of RB
  IC50: 140 nM
[1]; Table 7a, Ovarian (OAW28)
  EC50: 114 nM
[2]
  IC50: 140 nM
[3]
  EC50: 334 nM
[4]
  degrading Cyclin D, overall statement: effective in degrading Cyclin D
[5]
  senescence (SA-βGal levels): induced senescence
[6]
  senescence (SA-βGal levels): induced senescence
[7]; ES-2, 250 nM Compound 42, 24 hours, compared to palbociclib 1 μM
  Rb expression: reduction of Rb expression
[7]; [10]
  Rb expression: reduction
[7]; OAW42, 250 nM Compound 42, 24 hours, compared to palbociclib 1 μM
  Rb expression: reduction of Rb expression
[8]; A2780, 250 nM Compound 42, 1 μM Palbociclib, 24 hours
  Cyclin D1 expression: reduction of cyclin D1 expressions
[8]; ES-2, 250 nM Compound 42, 1 μM Palbociclib, 24 hours
  Cyclin D1 expression: reduction of cyclin D1 expressions
[8]; [10]
  Cyclin D1 expression: reduction
[8]; OAW42, 250 nM Compound 42, 1 μM Palbociclib, 24 hours
  Cyclin D1 expression: reduction of cyclin D1 expressions
[8]; SW626, 250 nM Compound 42, 1 μM Palbociclib, 24 hours
  Cyclin D1 expression: reduction of cyclin D1 expressions
[9]; Compound 42 250 nM alone
  cyclin D levels: induced cyclin D levels to decrease
[9]; Compound 42 250 nM alone, listed as compound 42
  cyclin D levels: decreases cyclin D levels
[9]; Compound 42 250 nM in the presence of epoxomicin 60 nM
  cyclin D levels: returned cyclin D levels to normal (or slightly above)
[9]; Compound 42 250 nM in the presence of epoxomicin 60 nM, listed as compound 42
  cyclin D levels: counterbalanced by adding epoxomicin
